Laboratory results taken from patent US20210308211A1, “METHOD OF TREATING VIRAL INFECTIONS” (priority 2020, published 2021).
Where “and” joins values, the source holds several entries; their conditions need not be identical. Identical values can stand only once. Non-standard residues stand in square brackets, D forms with d. Residues, ends and D or L forms follow the SMILES beside them. pS = N[C@@H](COP(=O)(O)O)C(=O)O

Experiments:
C57BL/6 mice = assay: K/B×N serum transfer arthritis, curative protocol; type: in vivo, mouse
Protocol: The TCR transgenic mice expressing the KRN and the MHC class II A^g7 molecule (K/B×N mice) have developed a severe inflammatory arthritis. The administration of serum of these mice to healthy recipient mice causes inflammatory arthritis over a period of about 15 days with a peak ignition around day 7 post-injection.
Two mouse serum administrations from K/B×N were performed (day 0 and day 2). The injection of serum (100 μl/mouse) is performed by intra-peritoneal (ip) injection in mice C57BL/6 (or B6) for 8 weeks (n=10); untreated mouse (n=10).
The P140 peptide (100 μg/100 μl; iv retro-orbital) was administered as follows:
Curative treatment: Injection at day 1 and day 4, to guide the peak of inflammatory disease. Preventive treatment: Injection at day −7 and day −2. Bleeding S0 (at day 0) is followed by bloodletting conducted every six days to dispose of serum. The study ends when inflammation has returned to its basal level, to around day 20 (see FIG. 19).
During the peak of inflammation, every day the animals are evaluated, and swelling score of articulation is established. It is ranged from 0 to 4 and based on a joint observation of the animal. In practice, this score is given for each leg (4 values) and these values are added together to get a general score that ranges from 0 to 16 (FIG. 20).

Raji cells = assay: Cellular uptake of fluorescent P140 in Raji cells (flow cytometry); type: cell-based, human; settings: fluorescent peptide in 10% trehalose compared with 5.4% mannitol
Excerpt: (§1) FIG. 8. Cellular uptake of fluorescent P140 peptide in 5.4% mannitol or 10% trehalose in MRL/lpr B cells and Raji cells as visualized by flow cytometry. B cells were from 12-14 week-old MRL/lpr mice (primary cells); Raji cells are an established cell line derived in 1963 from B-lymphocyte of a patient with Burkitt's lymphoma.
(§2) For P140 peptide activity, HSC70 binding and endocytosis appear to be important. It is believed that endocytosis must occur through the clathrin route. This implies that peptide+excipient should have a size in the range of 30 to 500 nm in diameter. For example P140+mannitol are in the 100 nm region whereas P140+trehalose are below 10 nm and therefore not effective binding to HSC70. […] B cells were from 12-14 week-old MRL/lpr mice (primary cells); Raji cells are an established cell line derived in 1963 from B-lymphocyte of a patient with Burkitt's lymphoma. […] The confocal images show the late endosomal compartment where P140 localizes before homing into lysosomes; DAPI identifies DNA.

MRL/lpr B cells = assay: Cellular uptake of fluorescent P140 in MRL/lpr B cells (flow cytometry, confocal); type: cell-based, mouse
Excerpt: as §1
FIG. 9. Confocal images of B cells of FIG. 10. All confocal images were taken in the same microscopic settings. Rab9 (red) identifies the late endosomal compartment where P140 localizes before homing into lysosomes DAPI (blue) identifies DNA.
as §2

Balb/c mice = assay: 31-day HDM-induced asthma model, airway response to methacholine (Flexivent); type: in vivo, mouse; settings: for Crs / Ers / Rrs: per mouse
Protocol: The aim of this study was to evaluate the effect of the P140 phosphopeptide administered systemically (intravenously) in a 31-day model of HDM-induced asthma in mice. The P140 phosphopeptide was solubilized in sterile water (Braun) and 10x concentrate sterile saline was added to adjust osmolarity to 300 mosm. Osmolarity was controlled with a micro osmometer (Löser, type 15) and validated (303 mosm). The P140 phosphopeptide was used in vivo at the dose of 4 mg/kg by intravenous (i.v.) routes. Control animals received equivalent volumes (2 ml/kg) of saline (Table 8).
Nine-week-old male Balb/c mice were sensitized by intranasal (i.n.) administration of HDM extract (Stallergenes): 1 μg in 25 μl saline on days 0, 1, 2, 3, 4, and 10 μg on days 14 and 21. Mice were challenged by i.n. administration of HDM (1 μg) and/or saline on days 28, 29 and 30. Mice were treated by i.v. injection (2 ml/kg) of P140 or solvent on day 25 (see FIG. 12).
Airway response to Methacholine (Flexivent®). On day 31, airway responses to PBS then methacholine were assessed using a forced oscillation technique (Flexivent®, SCIREQ, Montreal, Canada) as described (Daubeuf et al, Bioprotocol, 645, 2013). Mice were anesthetized with an intraperitoneal injection of xylasine (Rompun®; 1 mg/kg), followed fifteen minutes later by an intraperitoneal injection of pentobarbital sodium (3.64 mg/Kg). The trachea was exposed and an 18-gauge metal needle was inserted into the trachea. Airways were connected to a computer-controlled small animal ventilator, and quasi-sinusoidally ventilated with a tidal volume of 10 ml/Kg at a frequency of 150 breaths/min and a positive end-expiratory pressure of 2 cm H2O to achieve a mean respiratory volume close to that of spontaneous breathing. After baseline measurement, each mouse was challenged for 10 sec with an aerosol of PBS generated with an in-line nebulizer and administered directly through the ventilator. Then, aerosolized methacholine (MCh) at 50 mg/ml was administered for 10 sec. The effect of methacholine was calculated as the peak response, i.e. the mean of the three maximal values integrated for calculation of airway resistance (R, cm H20·s·mL^−1), elastance (E, cm H20·mL^−1) and compliance (C, mL·cm H20^−1).
All mice were sensitized to HDM on days 0, 1, 2, 3, 4, 14, 21, and challenged either with saline ([…]) or HDM (challenge with allergen). Results are presented as means±SEM. Differences between groups were tested for statistical significance using Student's t test for inflammatory cells and a two-way ANOVA followed by Bonferroni post-test for airway responses.

[1] = chronic asthma, methacholine 50 mg/ml, P140 i.v. 4 mg/kg day 25, p<0.05
[2] = HDM + P140 (HDM-challenged), first unlabelled sub-column (presumably PBS/baseline)
[3] = HDM + P140 (HDM-challenged), second unlabelled sub-column (presumably MCh 50 mg/mL)
[4] = P140, saline-challenged (chronic asthma), first unlabelled sub-column (presumably PBS/baseline)
[5] = P140, saline-challenged (chronic asthma), second unlabelled sub-column (presumably MCh 50 mg/mL)

## CC[C@H](C)[C@H](NC(=O)[C@H](Cc1ccccc1)NC(=O)[C@H](C)NC(=O)[C@H](Cc1ccc(O)cc1)NC(=O)CNC(=O)[C@H](CCCNC(=N)N)NC(=O)[C@@H]1CCCN1C(=O)[C@H](CCCCN)NC(=O)CNC(=O)[C@H](COP(=O)(O)O)NC(=O)[C@H](CCCNC(=N)N)NC(=O)[C@H](CCCCN)NC(=O)[C@H](CO)NC(=O)[C@H](Cc1ccc(O)cc1)NC(=O)[C@@H](NC(=O)[C@H](CCSC)NC(=O)[C@H](Cc1c[nH]cn1)NC(=O)[C@@H](NC(=O)[C@@H](N)CCCNC(=N)N)[C@@H](C)CC)C(C)C)C(=O)N[C@@H](CCC(=O)O)C(=O)N[C@@H](Cc1ccc(O)cc1)C(=O)O [Compound P140] (H-RIHMVYSKR[pS]GKPRGYAFIEY-OH; N-terminus and C-terminus assumed)
C57BL/6 mice; curative protocol (injection day 1 and day 4), from day 2, NaCl 10%
  Weight loss: 15%
C57BL/6 mice; curative protocol, between day 5 and the end of the study, controls 5%
  Weight gain: 20%
C57BL/6 mice; curative protocol, per rear leg, same for controls
  Inflammation score, maximum: ~1.5
Raji cells
  Cellular uptake (flow cytometry): Much less cellular uptake
MRL/lpr B cells; fluorescent peptide in 10% trehalose compared with 5.4% mannitol, MRL/lpr B cells
  Cellular uptake (flow cytometry): Much less cellular uptake
MRL/lpr B cells; peptide in trehalose compared with mannitol
  Entry into B cells (confocal microscopy): enters B cells much less
Balb/c mice; allergen (HDM)-challenged mice, compared to the solvent group
  Airway resistance, elastance or compliance (in words): no effect
Balb/c mice; chronic asthma, methacholine 50 mg/ml, P140 i.v. 4 mg/kg day 25, non-significant (n=5)
  Airway resistance, change vs solvent group: −42%
Balb/c mice; [1]
  Airway compliance, change vs solvent group: +115%
  Elastance, change vs solvent group: −65%
Balb/c mice; [2]
  Crs: 0.0554 mL/cmH2O and 0.0514 mL/cmH2O and 0.0528 mL/cmH2O and 0.0566 mL/cmH2O and 0.0492 mL/cmH2O and 0.0458 mL/cmH2O and 0.0552 mL/cmH2O and 0.0589 mL/cmH2O
  Ers: 18.0582 cmH2O/mL and 19.4433 cmH2O/mL and 18.9515 cmH2O/mL and 17.6781 cmH2O/mL and 20.3326 cmH2O/mL and 21.8367 cmH2O/mL and 18.1106 cmH2O/mL and 16.9723 cmH2O/mL
  Rrs: 0.6405 cmH2O.s/mL and 0.6092 cmH2O.s/mL and 0.7972 cmH2O.s/mL and 0.5185 cmH2O.s/mL and 0.6804 cmH2O.s/mL and 0.6365 cmH2O.s/mL and 0.4744 cmH2O.s/mL and 0.5456 cmH2O.s/mL
Balb/c mice; [3]
  Crs: 0.0146 mL/cmH2O and 0.0075 mL/cmH2O and 0.0062 mL/cmH2O and 0.0065 mL/cmH2O and 0.0101 mL/cmH2O and 0.0060 mL/cmH2O and 0.0138 mL/cmH2O and 0.0081 mL/cmH2O
  Ers: 79.8018 cmH2O/mL and 148.4985 cmH2O/mL and 188.1151 cmH2O/mL and 219.9720 cmH2O/mL and 125.7688 cmH2O/mL and 173.4582 cmH2O/mL and 72.6033 cmH2O/mL and 131.8035 cmH2O/mL
  Rrs: 5.6421 cmH2O.s/mL and 10.3886 cmH2O.s/mL and 11.9654 cmH2O.s/mL and 10.5419 cmH2O.s/mL and 8.8810 cmH2O.s/mL and 13.0087 cmH2O.s/mL and 7.0705 cmH2O.s/mL and 9.7688 cmH2O.s/mL
Balb/c mice; P140, saline-challenged (chronic asthma)
  Rrs: 0.5590 cmH2O.s/mL and 0.8945 cmH2O.s/mL and 0.5926 cmH2O.s/mL and 0.8074 cmH2O.s/mL and 0.4418 cmH2O.s/mL
Balb/c mice; [4]
  Crs: 0.0545 mL/cmH2O and 0.0498 mL/cmH2O and 0.0569 mL/cmH2O and 0.0541 mL/cmH2O and 0.0650 mL/cmH2O
  Ers: 18.3671 cmH2O/mL and 20.0811 cmH2O/mL and 17.5777 cmH2O/mL and 18.4893 cmH2O/mL and 15.3975 cmH2O/mL
Balb/c mice; [5]
  Crs: 0.0304 mL/cmH2O and 0.0132 mL/cmH2O and 0.0380 mL/cmH2O and 0.0238 mL/cmH2O and 0.0370 mL/cmH2O
  Ers: 33.3720 cmH2O/mL and 84.9688 cmH2O/mL and 26.3200 cmH2O/mL and 42.4174 cmH2O/mL and 28.6047 cmH2O/mL
  Rrs: 4.1067 cmH2O.s/mL and 9.4002 cmH2O.s/mL and 2.2229 cmH2O.s/mL and 4.0926 cmH2O.s/mL and 2.1844 cmH2O.s/mL
Balb/c mice; saline-challenged mice, i.v. 4 mg/kg day 25, compared to solvent-treated mice
  Baseline airway resistance, elastance and compliance after PBS inhalation (in words): no effect
